Two compounds from publication PMC9807592, “New thioxothiazolidinyl-acetamides derivatives as potent urease inhibitors: design, synthesis, in vitro inhibition, and molecular dynamic simulation” (Scientific Reports, 2023) can be followed below.

Values after ≈ are worked out from the molar mass of the structure shown. Bounds are passed on as bounds.

The target in one data set is T1, urease (Canavalia ensiformis, UniProt P07374). Nature of the data set: Enzyme kinetic study of urease inhibition (Lineweaver–Burk). In kind it is biochemical.
T1 sequence (P07374 whole entry, looked up): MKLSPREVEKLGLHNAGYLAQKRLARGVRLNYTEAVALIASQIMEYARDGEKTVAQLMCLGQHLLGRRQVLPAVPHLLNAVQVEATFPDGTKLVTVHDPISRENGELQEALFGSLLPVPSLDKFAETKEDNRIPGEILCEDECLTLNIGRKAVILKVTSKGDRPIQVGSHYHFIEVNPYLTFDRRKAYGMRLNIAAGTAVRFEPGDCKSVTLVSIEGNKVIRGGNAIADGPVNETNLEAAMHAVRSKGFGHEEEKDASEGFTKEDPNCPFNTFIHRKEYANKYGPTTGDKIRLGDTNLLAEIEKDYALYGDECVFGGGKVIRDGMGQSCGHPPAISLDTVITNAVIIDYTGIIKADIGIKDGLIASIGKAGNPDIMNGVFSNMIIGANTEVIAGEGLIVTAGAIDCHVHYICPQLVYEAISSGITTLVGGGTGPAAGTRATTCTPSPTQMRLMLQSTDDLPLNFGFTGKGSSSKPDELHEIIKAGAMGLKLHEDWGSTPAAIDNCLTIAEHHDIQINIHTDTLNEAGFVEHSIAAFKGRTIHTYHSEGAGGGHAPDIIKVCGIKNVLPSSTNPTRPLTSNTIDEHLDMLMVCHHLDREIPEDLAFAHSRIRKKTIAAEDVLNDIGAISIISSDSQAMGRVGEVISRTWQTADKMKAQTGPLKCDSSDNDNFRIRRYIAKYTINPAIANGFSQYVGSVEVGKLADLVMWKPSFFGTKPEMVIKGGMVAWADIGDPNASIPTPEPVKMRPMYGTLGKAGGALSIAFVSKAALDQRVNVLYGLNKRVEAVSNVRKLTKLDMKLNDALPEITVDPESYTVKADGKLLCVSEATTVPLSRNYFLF
Settings: not given
The procedure:
A Lineweaver–Burk plot was generated to identify the type of inhibition, and the Michaelis–Menten constant (Km) value was determined from the plot between the reciprocal of the substrate concentration (1/[S]) and reciprocal of enzyme rate (1/V) over various inhibitor concentrations. The experimental inhibitor constant (Ki) value was constructed by secondary plots of the inhibitor concentration [I] versus Km.
As usually defined, the Ki is a measure of affinity in units of concentration, obtained from inhibition or displacement. Higher therefore signals lower affinity. Regarding `CCCCN1C(=O)[C@@H](CC(=O)NCc2ccccc2)SC1=S` (racemic) [Compound 6i, N-benzyl-2-(3-butyl-4-oxo-2-thioxothiazolidin-5-yl)acetamide], the Ki amounted to 1.17 µM.

The same data set, now with this note: Lineweaver–Burk plot; 6i at 0, 0.5, 1 and 2 µM.
As to `CCCCN1C(=O)[C@@H](CC(=O)NCc2ccccc2)SC1=S` (racemic) [Compound 6i, N-benzyl-2-(3-butyl-4-oxo-2-thioxothiazolidin-5-yl)acetamide], the type of inhibition entry is recorded as “competitive”.

Tested on in another data set: not given
Test: not given
Settings: not given
By melting point is commonly meant the temperature of the solid-liquid transition. In the case of `CCCCNC(=O)CC1SC(=S)N(Cc2ccccc2)C1=O` (stereo not drawn) [Compound 6e, 2-(3-benzyl-4-oxo-2-thioxothiazolidin-5-yl)-N-butylacetamide], the melting point is 166 to 168 °C.
Same read-out and setting: under `CCCCN1C(=O)[C@@H](CC(=O)NCc2ccccc2)SC1=S` (racemic) [Compound 6i, N-benzyl-2-(3-butyl-4-oxo-2-thioxothiazolidin-5-yl)acetamide] stands 172 to 174 °C.

For another data set, the system named is urease-positive clinical isolate of P. vulgaris. Nature of the data set: Urease inhibitory activity against P. vulgaris (Christensen's urea medium, 560 nm). In kind it is cell-based. The following applies: Proteus vulgaris; 24 h at 37 °C, read at 560 nm. The procedure: To assess the inhibition of urease activity by synthetic compounds, Christensen’s urea.
medium containing urea and phenol red (pH indicator) was used for the preparation of two-fold serial dilutions of compounds in 96-well microtiter plates. Cell suspension of a urease-positive clinical isolate of P. vulgaris was prepared in a urea medium and added to each well. The turbidity of bacterial suspension was adjusted to 0.5 McFarland using a spectrophotometer, and also, the density of inoculated suspension was 1 × 10^6 CFU/ml. The concentrations of compounds were in the range of 1–512 µg/ml.
Inoculated media without adding any compound was considered a positive control, while uninoculated media were used as a negative control (blank). The anti-urease activity was assessed spectroscopically at 560 nm after 24 h incubation at 37 °C[14].
Broadly, the IC50 is the concentration that gives 50% inhibition. A higher IC50 goes with lower potency. Compound `CCCCNC(=O)CC1SC(=S)N(Cc2ccccc2)C1=O` (stereo not drawn) [Compound 6e, 2-(3-benzyl-4-oxo-2-thioxothiazolidin-5-yl)-N-butylacetamide] had an IC50 of 15.3 ± 2.4 µg/mL (≈ 45.4 µM).
Same read-out and setting: to `CCCCN1C(=O)[C@@H](CC(=O)NCc2ccccc2)SC1=S` (racemic) [Compound 6i, N-benzyl-2-(3-butyl-4-oxo-2-thioxothiazolidin-5-yl)acetamide] belongs 17.8 ± 3.75 µg/mL (≈ 52.8 µM).

In the next data set the test system is C. albicans ATCC 10261. As to the kind of experiment: Antimicrobial activity, broth microdilution (CLSI). In kind it is cell-based. The note with it: Candida albicans, ATCC10261. Here is the method: The antimicrobial activity of designed compounds was investigated using broth microdilution.
Briefly, twofold serial dilutions of the compounds were prepared in Mueller–Hinton Broth (MHB, HiMedia) for bacterial strains and RPMI-1640 (Sigma-Aldrich) for yeast strain (Ranging 1–512 µg/ml). Then, 100 μL of each dilution was transferred into the well of a microtiter plate and inoculated with 100 μL of cell suspension with a final density of 1–5 × 10^3 CFU/ml for yeasts and 1–1.5 × 10^6 cells/ml for bacteria. Plates were incubated at proper temperature overnight, and the minimum inhibitory concentration (MIC) of compounds was determined as the lowest concentration that prevented visible growth of tested microorganisms compared with the growth in the control wells (wells without tested compounds). Moreover, the minimum bactericidal/fungicidal concentration (MBC/MFC) of compounds was determined by transferring the 10 µl of clear wells into the agar media. Standard antibacterial and antifungal agents (Ciprofloxacin and Fluconazole) were evaluated. All experiments were performed in duplicate[30],[31].
The term MIC denotes the lowest concentration that inhibits growth of the organism. `CCCCNC(=O)CC1SC(=S)N(Cc2ccccc2)C1=O` (stereo not drawn) [Compound 6e, 2-(3-benzyl-4-oxo-2-thioxothiazolidin-5-yl)-N-butylacetamide] registered an MIC of over 512 µg/mL.
Still for that read-out and setting: to `CCCCN1C(=O)[C@@H](CC(=O)NCc2ccccc2)SC1=S` (racemic) [Compound 6i, N-benzyl-2-(3-butyl-4-oxo-2-thioxothiazolidin-5-yl)acetamide] belongs over 512 µg/mL.

For the next data set, the target named is T1, urease. As to the kind of experiment: biochemical.
Settings: not given
In kind it is biochemical. The procedure:
The assay was performed exactly according to our previous report. Briefly, 850 μL of urea and 15 μL urease (0.135 units dissolved in PBS, pH 7.4) were added to 100 μL of the synthesized derivatives at different concentrations. After 30 min, to 100 μL of the incubated solution, 500 μL solution I (5.0 g phenol and 25.0 mg sodium nitroprusside in 500 mL water) was added followed by the addition of 500 μL of solution II (2.5 g sodium hydroxide, 4.2 mL sodium hypochlorite, and 5% chlorine in 500 mL water) which was further incubated at 37 °C for 30 min. The absorbance was determined by measuring indophenols at 625 nm. Thiourea was used as the standard inhibitor for urease. The IC50 values for all synthesized compounds were calculated using GraphPad Prism software (GraphPad Software, Inc., San Diego, CA)[20].
`CCCCNC(=O)CC1SC(=S)N(Cc2ccccc2)C1=O` (stereo not drawn) [Compound 6e, 2-(3-benzyl-4-oxo-2-thioxothiazolidin-5-yl)-N-butylacetamide] gave an IC50 of 1.64 ± 0.45 µM.
Same read-out and setting: to `CCCCN1C(=O)[C@@H](CC(=O)NCc2ccccc2)SC1=S` (racemic) [Compound 6i, N-benzyl-2-(3-butyl-4-oxo-2-thioxothiazolidin-5-yl)acetamide] belongs 1.47 ± 0.11 µM.

The subject of a further data set is S. aureus ATCC 25923. Nature of the data set: Antimicrobial activity, broth microdilution (CLSI). In kind it is cell-based. The note with it: Staphylococcus aureus, ATCC25923. Here is the method:
(§1) Then, 100 μL of each dilution was transferred into the well of a microtiter plate and inoculated with 100 μL of cell suspension with a final density of 1–5 × 10^3 CFU/ml for yeasts and 1–1.5 × 10^6 cells/ml for bacteria. Plates were incubated at proper temperature overnight, and the minimum inhibitory concentration (MIC) of compounds was determined as the lowest concentration that prevented visible growth of tested microorganisms compared with the growth in the control wells (wells without tested compounds). […] All experiments were performed in duplicate[30],[31].
(Broth dilution looks for growth in wells or tubes with falling amounts of substance.)
On to `CCCCNC(=O)CC1SC(=S)N(Cc2ccccc2)C1=O` (stereo not drawn) [Compound 6e, 2-(3-benzyl-4-oxo-2-thioxothiazolidin-5-yl)-N-butylacetamide], for which the MIC was over 512 µg/mL.
Take `CCCCN1C(=O)[C@@H](CC(=O)NCc2ccccc2)SC1=S` (racemic) [Compound 6i, N-benzyl-2-(3-butyl-4-oxo-2-thioxothiazolidin-5-yl)acetamide]: the MIC was over 512 µg/mL.

The subject of the next data set is E. coli ATCC 25922. As to the kind of experiment: Antimicrobial activity, broth microdilution (CLSI). In kind it is cell-based. The following applies: Escherichia coli, ATCC25922, read-out: MIC. The procedure: as §1
For `CCCCNC(=O)CC1SC(=S)N(Cc2ccccc2)C1=O` (stereo not drawn) [Compound 6e, 2-(3-benzyl-4-oxo-2-thioxothiazolidin-5-yl)-N-butylacetamide], the minimum inhibitory concentration (MIC) was over 512 µg/mL.
The same measure, in the same setting: under `CCCCN1C(=O)[C@@H](CC(=O)NCc2ccccc2)SC1=S` (racemic) [Compound 6i, N-benzyl-2-(3-butyl-4-oxo-2-thioxothiazolidin-5-yl)acetamide] stands over 512 µg/mL.

For the next data set, the system named is clinical isolate of P. vulgaris. Nature of the data set: Antimicrobial activity, broth microdilution (CLSI). In kind it is cell-based. The following applies: Proteus vulgaris. Here is the method: as §1
With `CCCCNC(=O)CC1SC(=S)N(Cc2ccccc2)C1=O` (stereo not drawn) [Compound 6e, 2-(3-benzyl-4-oxo-2-thioxothiazolidin-5-yl)-N-butylacetamide], the MIC is over 512 µg/mL.
Same read-out and setting: under `CCCCN1C(=O)[C@@H](CC(=O)NCc2ccccc2)SC1=S` (racemic) [Compound 6i, N-benzyl-2-(3-butyl-4-oxo-2-thioxothiazolidin-5-yl)acetamide] stands over 512 µg/mL.

Tested on in another data set: not listed separately
As to the kind of experiment: In vitro cytotoxic evaluation (MTT assay). In kind it is cell-based. The note with it: human, MOLT-4 cells. Here is the method: MOLT-4 (human acute lymphoblastic leukemia) cells were cultures in RPMI-1640 medium supplemented with 10% heat-inactivated fetal bovine serum. Cell viability was measured by the MTT assay. MOLT-4 cells were seeded into 96-well micro-culture plates. After 24 h, the culture medium was replaced with a medium containing different concentrations of newly synthesized derivatives. Control wells were supplemented with the same volume of growth medium not containing any drugs. Cells were then incubated at 37 °C for 72 h. At the end of the exposure time, the medium was removed and MTT solution of 0.5 mg/ml was added to each well. The plates were incubated at 37 °C for 4 h, after which DMSO was added to each well to solubilize the formed formazan crystals, and the absorbance of each well was read with a microplate reader at 570 nm.
A general note: Tetrazolium assays rely on reduction of a dye to a coloured formazan, in cell work by metabolically active cells.
As a reminder, the viability is a per cent measure of how many cells are alive, often set against a control. A lower viability goes with more harm to the cells. Turning to `CCCCNC(=O)CC1SC(=S)N(Cc2ccccc2)C1=O` (stereo not drawn) [Compound 6e, 2-(3-benzyl-4-oxo-2-thioxothiazolidin-5-yl)-N-butylacetamide], the viability at 72 h, 100 µM worked out at 91.7 ± 2.8%.
With `CCCCN1C(=O)[C@@H](CC(=O)NCc2ccccc2)SC1=S` (racemic) [Compound 6i, N-benzyl-2-(3-butyl-4-oxo-2-thioxothiazolidin-5-yl)acetamide], the viability at 72 h, 100 µM was 97.8 ± 2.5%.
